# Read-outs that look alike come from different tables or passages of the source.
# Legend:
# [1] = target: BCL-2 (Homo sapiens, UniProt P10415); conditions: cited from earlier work
# [2] = target: BCL-XL (Homo sapiens, UniProt Q07817); conditions: cited from earlier work
# [3] = target: T1, BCL-w (Homo sapiens, UniProt Q92843); conditions: cited from earlier work
# T1 sequence (Q92843 1-193): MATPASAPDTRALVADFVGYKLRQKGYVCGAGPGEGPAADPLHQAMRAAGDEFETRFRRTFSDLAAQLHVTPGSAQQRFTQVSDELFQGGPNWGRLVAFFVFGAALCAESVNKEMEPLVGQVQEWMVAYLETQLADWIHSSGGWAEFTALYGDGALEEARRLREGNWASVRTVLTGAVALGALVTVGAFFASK
# [4] = test system: SU-DHL5; test: Cell viability assay (CellTiter-Glo) in SU-DHL5; assay type: cell-based; conditions: Homo sapiens
# Description: (§1) CELL VIABILITY ASSAY. […] Cell viability was assayed at 72 hrs by addition of CellTiter-Glo Assay reagents according to the manufacturer's protocol (Promega), and luminescence measured using a F200 PRO microplate reader (TECAN). […] Excluding high-throughput drug screenings, viability assays were performed in at least triplicate and the data normalized to 1% vehicle-treated control wells. IC50 values were determined by nonlinear regression analysis using Prism software (Graphpad). Dilutions of compounds was performed using a TECAN D300e Digital Dispenser from 10 mM stocks. The BLISS calculation was determined using the Combenefit program as previously described by Di Veroli et al., Bioinformatics.
# [5] = test system: leukemia and lymphoma cell lines; test: cells; conditions: Homo sapiens, 72 h, read-out: mean cell viability IC50
# Description: as §1
# [6] = test system: SW480 xenograft; test: SW480 tumor xenograft efficacy and pharmacodynamic study; assay type: in vivo, nu/nu nude mice; conditions: 200 mg/kg BTSA1.2, 100 mg/kg Navitoclax, oral daily
# Source text: TUMOR XENOGRAFT STUDIES. 6-8 weeks old nu/nu nude male mice were purchased from Charles River. […] For efficacy the efficacy study, treatments started once tumors reached a volume of ˜200 mm^3. […] Body weight of mice were monitored during treatment. For the pharmacodynamic study, treatments started once tumors reached a volume of ˜400 mm^3, after 3 days of daily treatment mice were euthanized and tumors were collected for analysis. Ex-Vivo BHS PROFILING. SW480 xenograft vehicle and combination treated tumors, and COLO-1 and COLO-2 PDX tumors were analyzed by BH3 profiling under basal conditions. Single cells from tumors were isolated by mechanically pass them through a […] strainer filter with cold PBS. SW480 xenograft tumors: […] PDX tumors: […] Single cell suspensions were prepared in 1:1 JC-1-MEB buffer, as previously described, and were kept at room temperature for 10 min to allow for cell permeabilization and dye equilibration. After adding the cells to the 384-well plate, 2.0×10^4 cells/well, fluorescence was measured at 590 nm emission 545 nm excitation using the M1000 microplate reader (TECAN) at 30° C. every 15 min for a total of 2 hrs.
# [7] = in vivo; conditions: both, CD1-IGS, mouse, po
# Description: MAXIMUM TOLERATED DOSE (MTD) AND IN VIVO TOXICITY STUDIES. […] Mice were monitored daily and body weight was monitored at the indicated days. After 14 days of the first treatment, mice were subject to euthanasia and necropsy (Histology and Comparative Pathology Facility, Albert Einstein College of Medicine) and tissues (e.g. spleen, liver, kidney, lung, heart) were harvested for fixation in 10% buffered formalin (Fisher Scientific) for pathology analysis. […] Blood counts were determined on a Forcyte Veterinary Hematology Analyzer (Oxford Science Inc.). […] Histological evaluation of tissues and necropsy performed by the Histology and Comparative Pathology Facility board-certified veterinary pathologist.
# [8] = test system: SW480; test: Cell viability (CellTiter-Glo), SW480; assay type: cell-based, human; conditions: SW480, 72 hrs
# Description: as §1
# [9] = test system: COLO-1 PDX; test: COLO-1 patient-derived xenograft efficacy study; assay type: in vivo, NOD SCID mice; conditions: 200 mg/kg BTSA1.2, 50 mg/kg Navitoclax, oral daily up to 18 days
# Source text: 6-8 weeks old NOD SCID male mice were purchased from Charles River. […] PDX characterization: mice were divided into two groups COLO-1 and COLO-2 (n=3) were divided into two groups. Tumor was collected once tumor reached a volume of ˜1,000 mm^3. […] Treatments started once tumors reached a volume of ˜200 mm^3. Tumor volume was monitored every 3-4 days by caliper measurements until the cessation of the experiment when tumors reached an ethically unacceptable size or after 18 days of daily treatment (whichever came first). Body weight of mice were monitored during treatment.
# [10] = Pharmacokinetic analysis of BTSA1.2 in mice; assay type: in vivo; conditions: for AUC(0-inf): read-out: AUCinf_obs; for MRT inf: read-out: MRTINF_obs
# Description: […] […]. ICR (CD-1) male mice were fasted at least 3 hrs and water was available ad libitum before the study. Animals were housed in a controlled environment, target conditions: temperature 18-29° C., relative humidity 30 to 70%. Temperature and relative humidity were monitored daily. […] Experiments performed at […] joint Biopharmacy Laboratory.
# [11] = BTSA1.2 and Navitoclax combination in vivo toxicity study; set-up: species or system CD1-IGS mice; conditions: 200 mg/kg BTSA1.2, 100 mg/kg Navitoclax, oral daily for 7 days
# Source text: 6-8 weeks old CD1-IGS male mice were purchased from Charles River. […] Mice were monitored daily; body weight and peripheral blood counts were monitored at the indicated days.
# [12] = target: T2, BAX (Homo sapiens, UniProt Q07812); test: BIM SAHB-BAX competition fluorescence polarization assay (FPA); assay type: binding; conditions: FITC-BIM SAHBA2 50 nM, BAX 500 nM
# T2 construct: serial dilutions of full-length BAX; made in house; host or cells: Escherichia coli
# T2 sequence (Q07812 whole entry): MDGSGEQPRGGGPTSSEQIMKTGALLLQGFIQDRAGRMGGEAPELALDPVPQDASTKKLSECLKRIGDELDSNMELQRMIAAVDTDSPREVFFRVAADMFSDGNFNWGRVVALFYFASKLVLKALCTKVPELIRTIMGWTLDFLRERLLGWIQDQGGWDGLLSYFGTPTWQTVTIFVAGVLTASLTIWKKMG
# Description: PRODUCTION OF RECOMBINANT BAX PROTEIN. […] BAX wild type was purified by size-exclusion chromatography in a buffer containing 20 mM HEPES pH 7.2, 150 mM KC1, 1 mM DTT. Superdex 75 10/300 GL and 200 10/300 GL (GE Healthcare) columns were used.
# FLUORESCENCE POLARIZATION BINDING As SAYS. […] Firstly, direct binding isotherms were generated by incubating FITC-BIM SAHBA2 (50 nM) with serial dilutions of full-length BAX and fluorescence polarization was measured at 20 min on a F200 PRO microplate reader (TECAN). Subsequently, in competition assays, a serial dilution of small-molecule or acetylated BIM SAHBA2 (Ac-BIM SAHB) was combined with FITC-BIM SAHBA2 (50 nM), followed by the addition of recombinant protein at EC75 concentration, as determined by the direct binding assay (BAX: 500 nM). EC50 and IC50 values were calculated by nonlinear regression analysis of competitive binding curves using Graphpad Prism software.
# [13] = test system: solid tumor cell lines; test: Cell viability, solid tumor cell lines of the 46-line panel; assay type: cell-based; conditions: Homo sapiens, read-out: mean cell viability IC50
# Description: as §1
# [14] = test system: COLO230; test: Cell viability (CellTiter-Glo), COLO230; assay type: cell-based, human; conditions: COLO230, 72 hrs
# Description: as §1
# [15] = test system: U937; test: Cell viability (CellTiter-Glo), U937; assay type: cell-based, human; conditions: U937, 72 hrs
# Description: as §1
# [16] = test system: OCI-AML3; test: Cell viability (CellTiter-Glo), OCI-AML3; assay type: cell-based, human; conditions: OCI-AML3, 72 hrs
# Description: as §1
# [17] = previously determined by Tse et al; cited from earlier work
# [18] = target: T3, BAX:BCL-XL complexes (Homo sapiens, UniProt Q07812); test: BAX co-immunoprecipitation and immunoblotting; assay type: cell-based; conditions: 4 hrs treatment
# T3 construct: endogenous in cells; host or cells: BxPC-3, SW480, Calu-6
# T3 sequence (Q07812 whole entry, one chain of several): as the sequence (Q07812 whole entry) above
# Description: Protein lysates were obtained by cell lysis in 0.2% NP-40 buffer (50 mM Tris-HCL, 150 mM NaCl, 1 mM EDTA, 10% Glycerol, 0.2% NP-40, pH 7.50) Immunoprecipitation was performed in 600 mL of 400 μg of proteins, which was precleared by centrifugation followed by exposure to 12 μL (50% slurry) protein A/G beads (Santa Cruz) at 4° C. for 30 min. […] Samples were then exposed to 20 μL (50% slurry) protein A/G beads (Santa Cruz) at 4° C. for 2 hrs and later centrifuged and washed three times with 0.2% NP-40 buffer and boiled in loading buffer (Life Technologies). […] For visualization of proteins with Odyssey Infrared Imaging System (LI-COR Biosciences) membranes were blocked in Odyssey Blocking Buffer (LI-COR Biosciences). Primary antibodies were incubated overnight at 4° C. in a 1:1,000 dilution. After washes, membranes were incubated with an IRdye800-conjugated goat anti-rabbit IgG or IRdye800-conjugated goat anti-mouse IgG secondary antibodies (LI-COR Biosciences) in a 1:10,000 and 1:20,000 dilution, respectively.
# After 2 hr, FBS was supplemented to a final concentration of 10%. […] The supernatants were isolated by centrifugation at 15,000×g for 10 min and the mitochondrial pellets solubilized in NP-40 lysis buffer (50 mM Tris-HCL pH 7.4, 150 mM NaCl, 5 mM MgCl2, 1 Mm EGTA, 10% Glycerol, 0.2% NP-40). […]
# [19] = test system: Calu-6 BAX KO cells; test: Viability and caspase 3/7 in WT and CRISPR/Cas9 BAX KO Calu-6 cells; assay type: cell-based, human
# Description: as §1
# Assays were performed at least in triplicate.
# [20] = SU-DHL-5, 72 hrs, read-out: Viability Inhibition- SU- DHL5- IC50
# [21] = male, ICR (CD-1), mouse, IV 1 mg/kg, mice plasma, Mean
# [22] = male, ICR (CD-1), mouse, PO 3 mg/kg, mice plasma, Mean
# [23] = SU-DHL-5, 72 h, read-out: Viability Inhibition- SU- DHL5- IC50 (μM)
# BCL-XL, sequence (Q07817 whole entry): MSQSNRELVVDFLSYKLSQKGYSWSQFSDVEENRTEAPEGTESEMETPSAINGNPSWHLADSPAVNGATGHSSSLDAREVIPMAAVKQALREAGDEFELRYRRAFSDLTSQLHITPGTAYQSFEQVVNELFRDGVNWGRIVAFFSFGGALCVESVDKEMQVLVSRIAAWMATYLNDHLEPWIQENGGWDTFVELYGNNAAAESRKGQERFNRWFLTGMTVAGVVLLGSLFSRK
# BCL-2, sequence (P10415 whole entry): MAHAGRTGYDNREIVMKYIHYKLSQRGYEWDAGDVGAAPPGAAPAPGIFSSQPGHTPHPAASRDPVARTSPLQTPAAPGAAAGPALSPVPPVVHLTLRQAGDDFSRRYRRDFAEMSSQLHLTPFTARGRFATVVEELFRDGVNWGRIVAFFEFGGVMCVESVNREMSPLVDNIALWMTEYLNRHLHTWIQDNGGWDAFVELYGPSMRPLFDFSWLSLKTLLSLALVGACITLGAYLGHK
compound,measurement,setting,value
CN(C)CC[C@H](CSc1ccccc1)Nc1ccc(S(=O)(=O)NC(=O)c2ccc(N3CCN(Cc4ccccc4-c4ccc(Cl)cc4)CC3)cc2)cc1[N+](=O)[O-] [ABT-737],affinity,[1],< 1 mol/L
same,affinity,[2],< 1 mol/L
same,affinity,[3],< 1 mol/L
"CCOc1ccccc1NN=C1C(=O)N(c2nc(-c3ccccc3)cs2)N=C1C [BAM7, reference compound]",IC50,[4]; [20],> 25 µM
"Cc1nc(N/N=C2\C(=O)N(c3nc(-c4ccccc4)cs3)N=C2c2ccccc2)sc1C [BTSA1.2, 4-(2-(4,5-dimethylthiazol-2-yl)hydrazono)-5-phenyl-2-(4-phenyl-thiazol-2-yl)-2,4-dihydro-3H-pyrazol-3-one]",necropsy finding,"200 mg/kg BTSA1, 300 mg/kg BTSA1.2, oral gavage daily",die by kidney failure after 3 days of treatment
same,body weights and organ histology,BTSA1.2 up to 200 mg/kg oral,constant body weights and organs examined were between normal histologic limits
same,dose limiting toxicity (DLT),oral daily for 5 days,300 mg/kg
same,IC50,[5],< 3000 nM
same,tumor growth,[6],no significant efficacy in reducing tumor growth
same,MTD,[7],200 mg/kg
same,single agent effect on cell viability,[8],resistant
same,tumor growth,[9],some PDX showed to respond to BTSA1.2 only treatment as their tumor growth was suppressed
same,CL_obs,"[10]; IV 1 mg/kg, mice plasma, Mean",0.282
same,VSS_obs,"[10]; IV 1 mg/kg, mice plasma, Mean",555.803
same,bioavailability,"[10]; male, ICR (CD-1), mouse, plasma, 3 mg/kg, oral administration, mice, read-out: oral bioavailability (% F)",~50%
same,Cmax,"[10]; male, ICR (CD-1), mouse, plasma, 3 mg/kg, oral administration, mice, read-out: peak concentration (Cmax)",~8 µM
same,AUC,"[10]; male, ICR (CD-1), mouse, plasma, 3 mg/kg, oral administration, mice, read-out: plasma exposure (AUC)",~100 µM·h
same,half-life,"[10]; male, ICR (CD-1), mouse, plasma, iv, 1 mg/kg, IV 1 mg/kg, mice plasma, Mean, read-out: T1/2 (converted)",24.6 h
same,half-life,"[10]; male, ICR (CD-1), mouse, plasma, po, 3 mg/kg, PO 3 mg/kg, mice plasma, Mean, read-out: T1/2 (converted)",14.4 h
same,half-life,"[10]; male, ICR (CD-1), mouse, plasma, po, 3 mg/kg, oral administration, read-out: half-life (T1/2) in mouse plasma (converted)",~14 h
same,bioavailability,"[10]; male, ICR (CD-1), mouse, plasma, PO 3 mg/kg vs IV 1 mg/kg, mice, read-out: F(%)",49.2%
same,AUC(0-t),[10]; [21],31900 ng·h/mL
same,Tmax,[10]; [21],2 h
same,AUC(0-inf),[10]; [21],67700 ng·h/mL
same,Cmax,"[10]; male, ICR (CD-1), mouse, IV 1 mg/kg, mice plasma, Mean, read-out: Cmax",2670 ng/mL
same,MRT inf,[10]; [21],35.7 h
same,AUC(0-t),[10]; [22],47000 ng·h/mL
same,Tmax,[10]; [22],3.33 h
same,AUC(0-inf),[10]; [22],70000 ng·h/mL
same,Cmax,"[10]; male, ICR (CD-1), mouse, PO 3 mg/kg, mice plasma, Mean, read-out: Cmax",3690 ng/mL
same,MRT inf,[10]; [22],21.7 h
same,half-life (T1/2) in mouse plasma,[10]; oral administration,~15 h
same,"body weight, blood counts and organs",[11],body weight and blood counts were measured in normal levels but reduction in white blood cells and lymphocytes counts was observed after repeated dosing
same,IC50,[4]; [23],0.23 µM
same,IC50,[12],109 nM
same,IC50,[13]; 72 h,> 10000 nM
O=C1/C(=N\Nc2nccs2)C(c2ccccc2)=NN1c1nc(-c2ccccc2)cs1 [BTSA1],IC50,[4]; [23],0.4 µM
CC1=NN(c2nc(-c3ccccc3)cs2)C(=O)C1=NNc1nccs1 [Compound 3],IC50,[4]; [20],> 25 µM
same,IC50,[12],2380 nM
O=C(O)c1cccc(NN=C2C(=O)N(c3nc(-c4ccccc4)cs3)N=C2c2ccccc2)c1 [Compound 5],IC50,[4]; [23],2.8 µM
same,IC50,[12],497 nM
Cc1c(-c2ccc(N3CCc4cccc(C(=O)Nc5nc6ccccc6s5)c4C3)nc2C(=O)O)cnn1CC12CC3CC(CC(C3)C1)C2 [Compound A-1331852],single agent effect on cell viability,[14],not effective
same,single agent effect on cell viability,[8],potent
same,single agent effect on cell viability,[15],moderately potent as single agent
same,single agent effect on cell viability,[16],moderately potent as single agent
"CC1(C)CCC(c2ccc(Cl)cc2)=C(CN2CCN(c3ccc(C(=O)NS(=O)(=O)c4ccc(N[C@H](CCN5CCOCC5)CSc5ccccc5)c(S(=O)(=O)C(F)(F)F)c4)cc3)CC2)C1 [Navitoclax, 4-(4-{[2-(4-Chlorophenyl)-5,5-dimethyl-1-cyclohexen-1-yl]methyl}-1-pipera-zinyl)-N-[(4-{[(2R)-4-(4-morpholinyl)-1-(phenylsulfanyl)-2-butanyl]amino}-3-[(trifluoromethyl)sulfonyl]phenyl)sulfonyl]benzamide, reference compound]",tumor growth,[6],no significant efficacy in reducing tumor growth
same,single agent effect on cell viability,[8],resistant
same,"body weight, blood counts and organs",[11],"lymphocyte, white blood cell and platelet counts reached levels below normal counts upon a single treatment"
same,MTD,[17],100 mg/kg/po
same,IC50,"[13]; 72 hrs, solid tumor cell lines",> 10000 nM
same,BAX:BCL-XL complexes by BAX co-immunoprecipitation,[18],disrupted BAX:BCL-XL complexes
CN[C@@H]1C[C@H]2O[C@@](C)([C@@H]1OC)n1c3ccccc3c3c4c(c5c6ccccc6n2c5c31)C(=O)NC4 [staurosporine],sensitivity of Calu-6 cells lacking BAX expression,[19],still sensitive

# From patent US20230372307A1, “COMBINATION THERAPY USING BAX ACTIVATOR AGENT” (Albert Einstein College of Medicine, priority 2020, published 2023)
